Values of other authors as cited in patent publication US20240408573A1, “ACIDIC GAS ADSORBENT AND ACIDIC GAS ADSORPTION DEVICE” (NITTO DENKO CORPORATION, priority 2021, published 2024).

Experiments:
[1] = safety index in terms of handling
[2] = safety index in terms of handling; remark: listed apart in the source
[3] = safety index in terms of handling; remark: listed apart in the source

NCCNCCNCCN [TETA, triethylenetetramine]
Mutagenicity test (Ames test) [1]: Positive | Skin irritation test (rabbit) (rabbits): Strong irritant | Fire Service Act [2]: Hazardous material | Poisonous and Deleterious Substances Control Act [3]: Deleterious
